According to article PMC6273231 (Molecules, 2016):

Target: influenza virus neuraminidase (NA) (Influenza A virus, UniProt Q6DPL2)
Conditions: enzyme inhibition assay in vitro

Sequence of influenza virus neuraminidase (NA) (Q6DPL2 whole entry, looked up): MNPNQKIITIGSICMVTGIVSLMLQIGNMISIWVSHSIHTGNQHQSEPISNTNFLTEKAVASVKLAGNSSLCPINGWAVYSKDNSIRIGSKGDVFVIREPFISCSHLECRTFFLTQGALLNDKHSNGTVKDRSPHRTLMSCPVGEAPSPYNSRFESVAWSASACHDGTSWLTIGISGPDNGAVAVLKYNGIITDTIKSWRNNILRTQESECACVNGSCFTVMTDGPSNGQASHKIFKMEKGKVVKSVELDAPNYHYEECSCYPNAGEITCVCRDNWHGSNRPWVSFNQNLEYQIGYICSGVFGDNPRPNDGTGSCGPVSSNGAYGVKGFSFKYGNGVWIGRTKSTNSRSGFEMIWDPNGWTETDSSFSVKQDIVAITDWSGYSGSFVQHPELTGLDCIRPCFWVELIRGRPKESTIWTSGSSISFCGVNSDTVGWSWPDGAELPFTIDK

**Q.** `C[C@]12C[C@@H](O)[C@@H]3C[C@@]1(O[C@@H]1O[C@H](CO)[C@@H](O)[C@H](O)[C@H]1O)[C@]3(COC(=O)c1ccccc1)C(=O)O2` [Albiflorin] was tested. Which “NA inhibitory activity compared with the positive control Oseltamivir acid (in words)” value did it give?
**A.** stronger activity against NA than Oseltamivir acid

**Q.** For `O=C(OC[C@H]1O[C@@H](OC(=O)c2cc(O)c(O)c(O)c2)[C@H](OC(=O)c2cc(O)c(O)c(O)c2)[C@@H](OC(=O)c2cc(O)c(O)c(O)c2)[C@@H]1OC(=O)c1cc(O)c(O)c(O)c1)c1cc(O)c(O)c(O)c1` [pentagalloylglucose, Pentagalloyl glucose], which “NA inhibitory activity compared with the positive control Oseltamivir acid (in words)” value is on record?
**A.** stronger activity against NA than Oseltamivir acid

**Q.** Which “NA inhibitory activity compared with the positive control Oseltamivir acid (in words)” value does the source give for `C[C@@]12C[C@@]3(O)O[C@@H](O1)[C@]1(COC(=O)c4ccccc4)[C@H]3C[C@@]12O[C@@H]1O[C@H](COC(=O)c2ccccc2)[C@@H](O)[C@H](O)[C@H]1O` [Benzoylpaeoniflorin] here?
**A.** stronger activity against NA than Oseltamivir acid

**Q.** With `C[C@@]12C[C@@]3(O)O[C@@H](O1)[C@]1(COC(=O)c4ccccc4)[C@H]3C[C@@]12O[C@@H]1O[C@H](CO)[C@@H](O)[C@H](O)[C@H]1O` [Paeoniflorin] as the compound, how does the “NA inhibitory activity compared with the positive control Oseltamivir acid (in words)” value read?
**A.** stronger activity against NA than Oseltamivir acid
